The text below walks through data of patent US20250340591A1, “COMPOSITION FOR PREVENTING OR TREATING INFLAMMATORY BOWEL DISEASE CONTAINING NOVEL COMPOUND” (ANYGEN CO., LTD., priority 2021, published 2025).

Square brackets hold non-standard residues; d marks the D form. Peptide text beside a SMILES is read from it. * marks the point of attachment. His(Trt) = N[C@@H](Cc1cn(C(c2ccccc2)(c2ccccc2)c2ccccc2)cn1)C(=O)O; dHis(Trt) = N[C@H](Cc1cn(C(c2ccccc2)(c2ccccc2)c2ccccc2)cn1)C(=O)O; His(τ-CHPh2) = N[C@@H](Cc1cn(C(c2ccccc2)c2ccccc2)cn1)C(=O)O; Biotin = O=C1N[C@H]2[C@H](CS[C@H]2CCCCC(=O)*)N1; dPhe(4-Cl) = N[C@H](Cc1ccc(Cl)cc1)C(=O)O; Phe(4-Me) = Cc1ccc(C[C@H](N)C(=O)O)cc1; dPhe(4-F) = N[C@H](Cc1ccc(F)cc1)C(=O)O; d2Nal = N[C@H](Cc1ccc2ccccc2c1)C(=O)O; Palmitoyl = CCCCCCCCCCCCCCCC(=O)*; Octanoyl = CCCCCCCC(=O)*

The series addresses T1, GPR39 (Homo sapiens, UniProt O43194).
T1 sequence (O43194 1-453): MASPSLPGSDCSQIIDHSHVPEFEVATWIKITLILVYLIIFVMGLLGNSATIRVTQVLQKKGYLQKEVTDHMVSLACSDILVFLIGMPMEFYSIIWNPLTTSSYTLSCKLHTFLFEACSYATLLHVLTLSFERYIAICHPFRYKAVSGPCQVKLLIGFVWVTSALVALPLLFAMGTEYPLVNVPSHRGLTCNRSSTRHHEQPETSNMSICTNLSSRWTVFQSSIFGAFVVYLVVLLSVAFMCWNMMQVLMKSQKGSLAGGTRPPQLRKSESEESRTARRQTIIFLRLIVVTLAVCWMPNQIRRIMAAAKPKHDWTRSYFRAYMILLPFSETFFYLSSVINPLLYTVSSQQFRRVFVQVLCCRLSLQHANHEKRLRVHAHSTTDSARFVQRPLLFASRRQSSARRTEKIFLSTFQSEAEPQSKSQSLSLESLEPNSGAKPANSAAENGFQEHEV
Kind of series: luciferase assay system (SRE luciferase reporter gene, CV-1 cells expressing GPR39). It counts as cell-based. Also on record: expressed in transfected cells; host or cells: CV-1 fibroblast cell line (Korea Cell Line Bank), adenoviral transduction at 50 MOI. On the technique in general: A reporter such as luciferase makes a cellular process visible.
Take `CCCCCCCC(=O)NCCCC[C@H](NC(=O)[C@@H](N)Cc1cn(C(c2ccccc2)(c2ccccc2)c2ccccc2)cn1)C(=O)N[C@@H](Cc1ccccc1)C(=O)N[C@@H](Cc1ccc(O)cc1)C(=O)N[C@@H](Cc1c[nH]c2ccccc12)C(=O)O` [HKFY-44, N6-octanoyl-N2-(Nt-trityl-L-histidyl)-L-lysyl-L-phenylalanyl-L-tyrosyl-L-tryptophan] (H-[His(Trt)]K(Octanoyl)FYW-OH): the “ECmax (−fold induction over basal)” value is given as 20 ± 0.47 fold induction over basal. The figure for `CCCCCCCC(=O)NCCCC[C@H](NC(=O)[C@H](Cc1cn(C(c2ccccc2)(c2ccccc2)c2ccccc2)cn1)NC(=O)CCCC[C@@H]1SC[C@@H]2NC(=O)N[C@@H]21)C(=O)N[C@@H](Cc1ccccc1)C(=O)N[C@@H](Cc1ccc(O)cc1)C(=O)O` [HKFY-2, N6-octanoyl-N2-(Na-(5-((3aS,4S,6aR)-2-oxohexahydro-1H-thieno[3,4-d]imidazol-4-yl)pentanoyl)-Nt-trityl-L-histidyl)-L-lysyl-L-phenylalanyl-L-tyrosine] (Biotin-[His(Trt)]K(Octanoyl)FY-OH) is 15 ± 1.87 fold induction over basal.

Regarding `CCCCCCCC(=O)NCCCC[C@H](NC(=O)[C@@H](N)Cc1cn(C23CC4CC(CC(C4)C2)C3)cn1)C(=O)N[C@@H](Cc1ccccc1)C(=O)N[C@@H](Cc1ccc(O)cc1)C(=O)O` [HKFY-23, N2-(Nt-(adamantan-1-yl)-L-histidyl)-N6-octanoyl-L-lysyl-L-phenylalanyl-L-tyrosine], the “ECmax (−fold induction over basal)” value came to 15 ± 1.37 fold induction over basal. As for `CCCCCCCCCCCCCCCC(=O)NCCCC[C@H](NC(=O)[C@@H](N)Cc1cn(C(c2ccccc2)(c2ccccc2)c2ccccc2)cn1)C(=O)N[C@@H](Cc1ccccc1)C(=O)N[C@@H](Cc1ccc(O)cc1)C(=O)O` [HKFY-27, N6-palmitoyl-N2-(Nt-trityl-L-histidyl)-L-lysyl-L-phenylalanyl-L-tyrosine] (H-[His(Trt)]K(Palmitoyl)FY-OH), the figure is 20.4 ± 0.57 fold induction over basal; as for `CCCCCCCC(=O)NCCCC[C@H](NC(=O)[C@@H](N)Cc1cn(C(c2ccccc2)c2ccccc2)cn1)C(=O)O` [HKFY-79, N2-(Nt-benzhydryl-L-histidyl)-N6-octanoyl-L-lysine], 11.2 ± 1.4 fold induction over basal; as for `CCCCCCCC(=O)NCCCC[C@H](NC(=O)[C@@H](N)CC1=CN(CCc2ccccc2)CN1CCc1ccccc1)C(=O)N[C@@H](Cc1ccccc1)C(=O)N[C@@H](Cc1ccc(O)cc1)C(=O)O` [HKFY-6, N2-((S)-2-amino-3-(1,3-diphenethyl-2,3-dihydro-1H-imidazol-4-yl)propanoyl)-N6-octanoyl-L-lysyl-L-phenylalanyl-L-tyrosine], 15 ± 2.12 fold induction over basal.

As for `CCCCCCCC(=O)NCCCC[C@H](N)C(=O)N[C@@H](Cc1cn(C(c2ccccc2)(c2ccccc2)c2ccccc2)cn1)C(=O)N[C@@H](Cc1ccccc1)C(=O)N[C@@H](Cc1ccc(O)cc1)C(=O)O` [HKFY-55, Na-(N6-octanoyl-L-lysyl)-Nt-trityl-L-histidyl-L-phenylalanyl-L-tyrosine] (H-K(Octanoyl)[His(Trt)]FY-OH), the “ECmax (−fold induction over basal)” value is 16.8 ± 2.5 fold induction over basal.

In the case of `CCCCCCCC(=O)NCCCC[C@H](NC(=O)[C@@H](N)Cc1cn(C(c2ccccc2)(c2ccccc2)c2ccccc2)cn1)C(=O)N[C@H](Cc1ccc2ccccc2c1)C(=O)N[C@@H](Cc1ccc(O)cc1)C(=O)O` [HKFY-74, ((R)-2-((S)-2-((S)-2-amino-3-(1-trityl-1H-imidazol-4-yl)propanamido)-6-octanamidohexanamido)-3-(naphthalen-2-yl)propanoyl)-L-tyrosine] (H-[His(Trt)]K(Octanoyl)[d2Nal]Y-OH), the “ECmax (−fold induction over basal)” value amounted to 18.8 ± 3.2 fold induction over basal. In the case of `CCCCCCCC(=O)NCCCC[C@H](NC(=O)[C@@H](N)Cc1cn(C(c2ccccc2)(c2ccccc2)c2ccccc2)cn1)C(=O)N[C@@H](Cc1ccccc1)C(=O)O` [HKFY-49, N6-octanoyl-N2-(Nt-trityl-L-histidyl)-L-lysyl-L-phenylalanine] (H-[His(Trt)]-Lys(Octanoyl)-Phe-OH), the “ECmax (−fold induction over basal)” value worked out at 18.3 ± 1.8 fold induction over basal. With `CCCCCCCC(=O)NCCCC[C@H](NC(=O)[C@H](N)Cc1cn(C(c2ccccc2)(c2ccccc2)c2ccccc2)cn1)C(=O)N[C@H](Cc1ccc(Cl)cc1)C(=O)N[C@H](Cc1ccc(O)cc1)C(=O)O` [HKFY-14, ((R)-2-((S)-2-((R)-2-amino-3-(1-trityl-1H-imidazol-4-yl)propanamido)-6-octanamidohexanamido)-3-(4-chlorophenyl)propanoyl)-D-tyrosine] (H-[dHis(Trt)]K(Octanoyl)[dPhe(4-Cl)][dY]-OH), the “ECmax (−fold induction over basal)” value is recorded as 20.9 ± 1.4 fold induction over basal. As for `CCCCCCCC(=O)NCCCC[C@H](NC(=O)[C@H](N)Cc1cn(C(c2ccccc2)c2ccccc2)cn1)C(=O)N[C@H](Cc1ccc(C)cc1)C(=O)N[C@@H](Cc1ccc(O)cc1)C(=O)O` [HKFY-62, ((R)-2-((S)-2-((R)-2-amino-3-(1-benzhydryl-1H-imidazol-4-yl)propanamido)-6-octanamidohexanamido)-3-(p-tolyl)propanoyl)-L-tyrosine], the figure is 28.1 ± 2.1 fold induction over basal; as for `CCCCCCCC(=O)NCCCC[C@H](NC(=O)[C@H](Cc1cn(C(c2ccccc2)c2ccccc2)cn1)NC(=O)CCCC[C@@H]1SC[C@@H]2NC(=O)N[C@@H]21)C(=O)N[C@@H](Cc1ccc(C)cc1)C(=O)N[C@@H](Cc1ccc(O)cc1)C(=O)O` [HKFY-72, ((S)-2-((S)-2-((S)-3-(1-benzhydryl-1H-imidazol-4-yl)-2-(5-((3aS,4S,6aR)-2-oxohexahydro-1H-thieno[3,4-d]imidazol-4-yl)pentanamido)propanamido)-6-octanamidohexanamido)-3-(p-tolyl)propanoyl)-L-tyrosine] (Biotin-[His(τ-CHPh2)]K(Octanoyl)[Phe(4-Me)]Y-OH), 10.4 ± 1.12 fold induction over basal. The figure for `CCCCCCCC(=O)NCCCC[C@H](NC(=O)[C@@H](N)Cc1cn(C(c2ccccc2)(c2ccccc2)c2ccccc2)cn1)C(=O)N[C@@H](Cc1ccc(O)cc1)C(=O)N[C@@H](Cc1ccc(O)cc1)C(=O)O` [HKFY-48, N6-octanoyl-N2-(Nt-trityl-L-histidyl)-L-lysyl-L-tyrosyl-L-tyrosine] (H-[His(Trt)]K(Octanoyl)YY-OH) is 14.4 ± 2.7 fold induction over basal; for `CCCCCCCC(=O)NCCCC[C@H](NC(=O)[C@@H](N)Cc1cn(C(c2ccccc2)(c2ccccc2)c2ccccc2)cn1)C(=O)N[C@H](Cc1ccc(F)cc1)C(=O)N[C@@H](Cc1ccc(O)cc1)C(=O)O` [HKFY-28, ((R)-2-((S)-2-((S)-2-amino-3-(1-trityl-1H-imidazol-4-yl)propanamido)-6-octanamidohexanamido)-3-(4-fluorophenyl)propanoyl)-L-tyrosine] (H-[His(Trt)]K(Octanoyl)[dPhe(4-F)]Y-OH) it is 22.95 ± 2.58 fold induction over basal.
